Laboratory results from US20070243217A1, “Film-Shaped Medicament for Oral Administration Containing Estriol” (HF Arzneimittelforschung GmbH, priority 2004, published 2007).

Tests used:
[1] = Changes of the oral mucosa on buccal or sublingual administration of estriol; type: in vivo
[2] = Estriol levels in the blood over time with the same treatment and dose; type: in vivo; conditions: vaginal application
Description: Thus, even in the case of long-term use, there should be no unwanted absorption conditions at the oral mucosa as the application site that show a change for the worse, provided that the treatment of the climacteric complaints is carried out using a film-shaped medicament according to the invention.

estriol levels in the blood after some time [2]: drop measurably after some time
SMILES: C[C@]12CC[C@@H]3c4ccc(O)cc4CC[C@H]3[C@@H]1C[C@@H](O)[C@@H]2O [estriol, (16α, 17β)-estra-1,3,5(10)-triene-3,16,17-triol]
changes of the oral mucosa analogous to proliferation and hornification of the upper cell layers in the vagina [1]: no changes of the oral mucosa
